The values below are quoted from earlier work in patent US8475827B2, “Tissue implants for implantation and methods for preparing the same” (CryoLife, Inc., priority 2010, dated 2013).

In this data set the test system is sensitive bacteria. As to conditions: literature review.

Regarding `NCC[C@H](O)C(=O)N[C@@H]1C[C@H](N)[C@@H](O[C@H]2O[C@H](CN)[C@@H](O)[C@H](O)[C@H]2O)[C@H](O)[C@H]1O[C@H]1O[C@H](CO)[C@@H](O)[C@H](N)[C@H]1O` [amikacin], the “minimum inhibitory concentration against sensitive bacteria (MIC) range” value is 0.125 to 32 µg/mL.
